Reference: US20060057669A1, “Inactive transcription factor tif-ia and uses thereof” (priority 2002, published 2006)

Test system: TIF-IA
Assay: In vitro transcription assay of TIF-IA purified from treated HEK293T cells, in nuclear extracts from rapamycin-treated cells
Type: biochemical
Details: 1 hr; okadaic acid 1 μM or calyculin A 50 nM with rapamycin 20 nM
Method: Nuclear extracts from rapamycin-treated cells were supplemented with 30 and 90 ng of TIF-IA that was immunopurified from HEK293T cells co-expressing FLAG-tagged TIF-IA and either GST/myc-tagged wild-type S6K1 (lanes 2-5) or S6K1E389ANAC (lanes 6-9).
B) Transcriptional activity of TIF-IA mutants in vitro. TIF-IA was purified from cells that were mock-treated (lanes 2, 3), or treated for 1 hr with either okadaic acid (1 μM), rapamycin (20 nM), calyculin A (50 nM), or both okadaic acid or calyculin A and rapamycin as indicated. 30 ng (even numbers) and 90 ng (odd numbers except 1) of TIF-IA were assayed for their capability to restore transcription of nuclear extracts from rapamycin-treated cells.
If S6K1 or S6K1-activated kinases were the only pathways that target TIF-IA and mediate mTOR-dependent regulation of Pol I transcription, then rapamycin should not inactivate TIF-IA if a rapamycin-resistant S6K1 mutant was co-expressed. This, however, was not the case.
Two mechanisms could be responsible for the decreased phosphorylation of S44 after rapamycin treatment, e.g., inhibition of the respective kinase or activation of a counteracting phosphatase. […] If PP2A dephosphorylates and thus inactivates TIF-IA, inhibition of PP2A should protect TIF-IA from inactivation by rapamycin. […]

Compound	effect on inactivation of TIF-IA by rapamycin
COC[C@@H]([C@H](O)[C@H](O)C(=O)NCC[C@H](C)c1nc(/C=C/C[C@@H]2O[C@]3(C[C@@H](O)[C@@H]2C)O[C@H]([C@H](C[C@H](O)[C@H](C)[C@H](O)[C@H](C)/C=C(C)/C(C)=C/C=C/C(C)=C\C#N)OC)[C@H](OP(=O)(O)O)C3(C)C)co1)N(C)C [calyculin A]	prevented inactivation of TIF-IA by rapamycin
C=C1[C@@H](O)[C@@H]2O[C@]3(CC[C@H](/C=C/[C@@H](C)[C@@H]4CC(C)=C[C@@]5(O[C@H](C[C@@](C)(O)C(=O)O)CC[C@H]5O)O4)O3)CC[C@H]2O[C@@H]1[C@@H](O)C[C@H](C)[C@H]1O[C@@]2(CCCCO2)CC[C@H]1C [okadaic acid]	prevented inactivation of TIF-IA by rapamycin
